Results reported in US20180369268A1, “METHODS FOR IDENTIFYING INHIBITORS OF "STIMULATOR OF INTERFERON GENE"- DEPENDENT INTERFERON PRODUCTION” (ADURO BIOTECH, INC., priority 2015, published 2018).
Like-named read-outs stand apart in the source and are kept apart here.

Columns and labels:
Experiment in all cases: Differential scanning fluorometry (DSF) Tm shift with purified STING AA140-379
Type in all cases: binding
hSTING HAQ allele = target: T1, hSTING HAQ allele (Homo sapiens, UniProt Q86WV6, G230A/H232R/R293Q); conditions: read-out: hSTING Tm Shift HAQ
T1 construct: DNA encoding amino acids 140-379 (amino acid numbering corresponding to Swiss Prot Q86WV6); 6xHIS-SUMO (with TEV site) (N, cleaved yes); made in house; host or cells: Rosetta2 (DE3) E. coli
Text: (§1) DNA encoding amino acids 140-379 (amino acid numbering corresponding to Swiss Prot Q86WV6) was amplified from plasmids containing the full length sequence of human STING alleles via polymerase chain reaction with the following primers: forward […] (SEQ ID NO: 9) and reverse […] (SEQ ID NO: 10). STING variant alleles were assigned according to Yi, et al, (2013), PLoS One, 8(10), e77846 (DOI: 10.1371/journal.pone.0077846. PCR products were cloned into bacterial expression vector encoding a N-terminal hexa-histidine affinity tag (6×HIS) followed by a small ubiquitin-like modifier (SUMO) solubility sequence (Butt, et al, (2005) Protein expression and purification 43.1, 1-9) and tobacco etch virus protease cleavage site (TEV) using ligation independent cloning (Aslanidis, et al, (1990) Nucleic acids research, 18.20, 6069-6074).
(§2) Plasmids encoding 6×HIS-SUMO-TEV-STING amino acids 140-379 were transformed into Rosetta2 (DE3) E. coli cells (EMD Millipore) for protein expression. Cells were grown in lysogeny broth at 37° C. until a […] absorbance of 0.6 was reached. Cells were then transferred to 18° C. and protein expression was induced overnight by the addition of isopropyl β-D-1-thiogalactopyranoside to the media at a concentration of 0.25 mM. Cells were harvested by centrifugation at 6,000 times gravity for 10 minutes. Cell pellets were re-suspended on ice in a buffer containing 50 mM Tris hydrochloride (Tris-HCl) pH 7.5, 500 mM sodium chloride (NaCl), 20 mM imidazole, 10% glycerol, 1 mM tris(2-carboxyethyl)phosphine hydrochloride (TCEP) and protease inhibitor tablet (Pierce) (Buffer A). Cells were lysed using an S-450D sonifier (Emmerson industrial) on ice. Cell lysate was centrifuged at 15,000 times gravity for 30 minutes at 4° C. Soluble material was applied to nickel-nitrilotriacetic acid (Ni-NTA) coupled Sepharose CL-6B (Qiagen) for 1 hour with gentle rocking at 4° C. After transfer to a gravity flow poly-prep column (Bio-Rad), resin was washed extensively in buffer A. Protein was eluted from the column in a buffer containing 20 mM Tris-HCl pH 7.5, 150 mM NaCl, 300 mM imidazole, 10% glycerol and 0.5 mM TCEP. To remove the 6×HIS-SUMO tag eluted protein was mixed with TEV protease (Sigma) at a ratio of 1:250 (w:w) and dialyzed overnight against a buffer containing 20 mM Tris-HCl pH 7.5, 150 mM NaCl, 5 mM imidazole, 10% glycerol and 0.5 mM TCEP. TEV protease and 6×HIS-SUMO tags were depleted by the addition of Ni-NTA resin (Qiagen) to the sample, purified STING amino acids 140-379 was collected by removal of the resin using a poly-prep column STING AA140-379 was concentrated with a 10,000 Dalton molecular weight cutoff centrifuge concentrator (EMD Millipore) to a final concentration of approximately 10 mg/ml. Protein was aliquoted, flash frozen in liquid nitrogen and stored at −80° C. until use.
(§3) Differential scanning fluorometry (DSF) is a technique that measures the ability of ligands to bind to and stabilize purified proteins (Niesen, et al, (2007) Nature protocols 2.9, 2212-2221). The protein is heated in the presence of a dye that binds to and fluoresces in hydrophobic environments. The protein is thermally denatured by heating resulting in increased dye binding to the unfolded protein and fluorescence. The temperature midpoint (Tm) of a proteins denaturation is established by calculating the half maximal value of the denaturation curve. The temperature midpoint of the protein in the presence of a ligand is directly related to the affinity of the ligand for the protein and therefore its ability to stabilize the protein at higher temperatures.
(§4) DSF was performed in a 20 μL reaction comprising 20 mM Tris-HCl pH 7.5, 150 mM NaCl, 1:500 dilution of SYPRO Orange (Life Technologies), 1 mg/ml purified STING AA140-379 protein and ligand at a concentration of 1 mM. Wild type hSTING, HAQ allele hSTING and/or REF allele hSTING were used with scaffold molecules of the invention as listed in Table 2.

hSTING REF allele = target: T2, hSTING REF allele (Homo sapiens, UniProt Q86WV6); conditions: ligand 1 mM, 1 mg/ml STING AA140-379
T2 construct: DNA encoding amino acids 140-379 (amino acid numbering corresponding to Swiss Prot Q86WV6); 6xHIS-SUMO (with TEV site) (N, cleaved yes); made in house; host or cells: Rosetta2 (DE3) E. coli
Text: as §1, §2, §3, §4

hSTING WT = target: T3, hSTING WT (Homo sapiens, UniProt Q86WV6, H232R); conditions: ligand 1 mM, 1 mg/ml STING AA140-379
T3 construct: DNA encoding amino acids 140-379 (amino acid numbering corresponding to Swiss Prot Q86WV6); 6xHIS-SUMO (with TEV site) (N, cleaved yes); made in house; host or cells: Rosetta2 (DE3) E. coli
Text: as §1, §2, §3, §4

[1] = DSF, ligand 1 mM, 1 mg/ml STING AA140-379

T2 sequence (Q86WV6 140-379): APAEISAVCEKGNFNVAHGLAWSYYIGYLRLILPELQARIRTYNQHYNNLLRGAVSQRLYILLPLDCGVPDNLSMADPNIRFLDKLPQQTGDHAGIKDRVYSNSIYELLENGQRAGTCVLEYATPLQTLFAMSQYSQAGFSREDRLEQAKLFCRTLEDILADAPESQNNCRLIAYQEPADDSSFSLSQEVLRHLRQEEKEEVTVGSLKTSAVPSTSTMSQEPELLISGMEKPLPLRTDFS
T3 sequence (Q86WV6 140-379 H232R): as the sequence (Q86WV6 140-379) above, with H93R counted along it
T1 sequence (Q86WV6 140-379 G230A/H232R/R293Q): as the sequence (Q86WV6 140-379) above, with G91A, H93R, R154Q counted along it

SMILES | ΔTm at 1000 µM (hSTING HAQ allele; [1]) [°C] | hSTING Tm Shift REF (hSTING REF allele) [°C] | hSTING Tm Shift WT (hSTING WT) [°C] | ΔTm at 1000 µM (hSTING HAQ allele) [°C]
Nc1ncnc2c1ncn2[C@H]1O[C@H]2CO[P@@](=O)(S)O[C@@H]3[C@H](O)[C@@H](n4cnc5c(N)ncnc54)O[C@H]3CO[P@](=O)(S)O[C@@H]2[C@@H]1O [Compound 48a, Triethylammonium (2S,3S,3aR,5R,7aS,9S,10S,10aR,12S,14aS)-2,9-bis(6-amino-9H-purin-9-yl)-3,10-dihydroxyoctahydro-2H, 7H-difuro[3,2-d: 3′,2′-j][1,3,7,9]tetraoxa[2,8]diphosphacyclododecine-5,12-bis(thiolate) 5,12-dioxide] | 6.6 | 6.3 | 2.9 | –
CC(C)C(=O)Nc1nc2c(ncn2[C@@H]2O[C@@H]3CO[P@@](=O)(S)O[C@@H]4[C@H](O)[C@@H](CO[P@@](=O)(S)O[C@H]3[C@H]2O)O[C@H]4n2cnc3c(NC(=O)c4ccccc4)ncnc32)c(=O)[nH]1 [Compound 42, dithio-[RP, RP]-cyclic-[ibG(3′,5′)p-BzA(2′,5′)p]] | 7.6 | – | – | –
Nc1ncnc2c1ncn2[C@H]1O[C@H]2CO[P@](=O)(S)O[C@@H]3[C@H](O)[C@@H](n4cnc5c(N)ncnc54)O[C@H]3CO[P@](=O)(S)O[C@@H]2[C@@H]1O [Compound 48, (2S,3S,3aR,5S,7aS,9S,10S,10aR,12S,14aS)-2,9-bis(6-amino-9H-purin-9-yl)-3,10-dihydroxy-5,12-dimercaptooctahydro-2H,7H-difuro[3,2-d:3′,2′-j][1,3,7,9]tetraoxa[2,8]diphosphacyclododecine 5,12-dioxide] | 2.3 | 2.3 | 2.0 | –
Nc1ncnc2c1ncn2[C@H]1O[C@H]2CO[P@@](=O)(S)O[C@@H]3[C@H](O)[C@@H](n4cnc5c(N)ncnc54)O[C@H]3CO[P@@](=O)(S)O[C@@H]2[C@@H]1O [Compound 48b, triethylammonium (2S,3S,3R,5R,7aS,9S,10S,10aR,12R,14aS)-2,9-bis(6-amino-9H-purin-9-yl)-3,10-dihydroxyoctahydro-2H,7H-difuro[3,2-d: 3′,2′-j][1,3,7,9]tetraoxa[2,8]diphosphacyclododecine-5,12-bis(thiolate) 5,12-dioxide] | 3.5 | 6.4 | 3.0 | –
CC(C)(C)[Si](C)(C)O[C@H]1[C@H]2O[P@@](=O)(S)OC[C@H]3O[C@@H](n4cnc5c(N)ncnc54)[C@H](F)[C@@H]3O[P@](=O)(S)OC[C@H]1O[C@H]2n1cnc2c(N)ncnc21 [Compound 6a, dithio-[SP, RP]-cyclic-[3′OTBS-A(2′,5′)p-2′F-A(3′,5′)p]] | – | 4.8 | 9.0 | 20.2
Nc1nc(N)c2ncn([C@@H]3O[C@@H]4CO[P@@](=O)(S)O[C@H]5[C@@H](O)[C@H](n6cnc7c(N)nc(N)nc76)O[C@@H]5CO[P@@](=O)(S)O[C@H]4[C@H]3O)c2n1 [Compound 23, (2R,3R,3aS,5R,7aR,9R,10R,10aS,12R,14aR)-2,9-bis(2,6-diamino-9H-purin-9-yl)-3,10-dihydroxy-5,12-dimercaptooctahydro-2H,7H-difuro[3,2-d:3′,2′-j][1,3,7,9]tetraoxa[2,8]diphosphacyclododecine 5,12-dioxide] | 15.1 | 8.3 | 12.2 | –
Nc1nc(N)c2ncn([C@@H]3O[C@@H]4CO[P@@](=O)(S)O[C@H]5[C@@H](O)[C@H](n6cnc7c(N)nc(N)nc76)O[C@@H]5CO[P@](=O)(S)O[C@H]4[C@H]3O)c2n1 [Compound 23a, (2R,3R,3aS,5R,7aR,9R,10R,10aS,12S,14aR)-2,9-bis(2,6-diamino-9H-purin-9-yl)-3,10-dihydroxy-5,12-dimercaptooctahydro-2H,7H-difuro[3,2-d:3′,2′-j][1,3,7,9]tetraoxa[2,8]diphosphacyclododecine 5,12-dioxide] | 6.3 | 3.1 | 10.0 | –
CC(C)C(=O)Nc1nc2c(ncn2[C@@H]2O[C@@H]3CO[P@@](=O)(S)O[C@H]4[C@@H](F)[C@H](n5cnc6c(=O)[nH]c(NC(=O)C(C)C)nc65)O[C@@H]4CO[P@@](=O)(S)O[C@H]3[C@H]2F)c(=O)[nH]1 [Compound 32, N,N′-(((2R,3R,3aR,5R,7aR,9R,10R,10aR,12R,14aR)-3,10-difluoro-5,12-dimercapto-5,12-dioxidooctahydro-2H, 7H-difuro[3,2-d:3′,2′-j][1,3,7,9]tetraoxa[2,8]diphosphacyclododecine-2,9-diyl)bis(6-oxo-6,9-dihydro-1H-purine-9,2-diyl))bis(2-methylpropanamide)] | 11.5 | 10.5 | 10.7 | –
Nc1ccn([C@@H]2O[C@@H]3CO[P@](=O)(S)O[C@H]4[C@@H](F)[C@H](n5cnc6c(N)ncnc65)O[C@@H]4CO[P@@](=O)(S)O[C@H]3[C@H]2F)c(=O)n1 [Compound 37a, 4-amino-1-((2R,3R,3aR,5R,7aR,9R,10R, 10aR,12S,14aR)-9-(6-amino-9H-purin-9-yl)-3,10-difluoro-5,12-dimercapto-5,12-dioxidooctahydro-2H,7H-difuro[3,2-d: 3′,2′-j][1,3,7,9]tetraoxa[2,8]diphosphacyclododecin-2-yl)pyrimidin-2(1H)-one] | 6.4 | 5.3 | 5.6 | –
Nc1ccn([C@@H]2O[C@@H]3CO[P@@](=O)(S)O[C@H]4[C@@H](F)[C@H](n5cnc6c(N)ncnc65)O[C@@H]4CO[P@@](=O)(S)O[C@H]3[C@H]2F)c(=O)n1 [Compound 37, 4-amino-1-((2R,3R,3aR,5R,7aR,9R,10R,10aR,12R,14aR)-9-(6-amino-9H-purin-9-yl) 3,10-difluoro-5,12-dimercapto 5,12-dioxidooctahydro-2H,7H-difuro[3,2-d:3′,2′-j][1,3,7,9]tetraoxa[2,8]diphosphacyclododecin-2-yl)pyrimidin-2(1H)-one] | 10.3 | 7.5 | 8.2 | –
Nc1nc2c(ncn2[C@@H]2O[C@@H]3CO[P@](=O)(S)O[C@@H]4[C@H](O)[C@@H](CO[P@](=O)(S)O[C@H]3[C@H]2O)O[C@H]4n2cnc3c(N)ncnc32)c(=O)[nH]1 [Compound 43] | 10.5 | – | – | –
C#CCOc1nc(N)nc2c1ncn2[C@@H]1O[C@@H]2COP(=O)(O)O[C@H]3[C@@H](O)[C@H](n4cnc5c(=O)[nH]c(N)nc54)O[C@@H]3COP(=O)(O)O[C@H]2[C@H]1O [compound 25, 2-amino-9-((2R,3R,3aS,7aR,9R,10R,10aS,14aR)-9-(2-amino-6-(prop-2-yn-1-yloxy)-9H-purin-9-yl)-3,5,10,12-tetrahydroxy-5,12-dioxidooctahydro-2H,7H-difuro[3,2-d:3′,2′-j][1,3,7,9]tetraoxa[2,8]diphosphacyclododecin-2-yl)-1,9-dihydro-6H-purin-6-one] | 7.2 | – | – | –
